Experimental data published in patent US20090209602A1, “CHEMICAL COMPOUNDS” (priority 2006, published 2009).

Molecular target: T1, human DGAT1 (Homo sapiens, UniProt O75907)
T1 construct: made in house; host or cells: Sf9 insect cells (recombinant baculovirus), membrane fraction
T1 sequence (O75907 1-488): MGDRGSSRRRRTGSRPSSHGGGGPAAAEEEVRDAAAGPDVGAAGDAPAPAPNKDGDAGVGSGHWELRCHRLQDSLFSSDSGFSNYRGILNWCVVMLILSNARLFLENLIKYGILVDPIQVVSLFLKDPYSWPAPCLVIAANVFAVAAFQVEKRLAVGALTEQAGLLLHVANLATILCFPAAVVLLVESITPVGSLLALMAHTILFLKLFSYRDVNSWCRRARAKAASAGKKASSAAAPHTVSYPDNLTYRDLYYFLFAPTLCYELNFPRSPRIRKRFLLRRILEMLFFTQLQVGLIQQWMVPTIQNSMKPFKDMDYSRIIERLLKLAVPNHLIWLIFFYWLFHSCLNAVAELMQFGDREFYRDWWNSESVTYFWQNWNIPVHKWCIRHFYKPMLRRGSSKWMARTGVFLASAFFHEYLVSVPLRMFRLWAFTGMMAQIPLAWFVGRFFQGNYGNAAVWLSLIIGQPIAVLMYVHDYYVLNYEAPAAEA
Assay: Human Enzyme Assay (DGAT1 inhibition)
Type: biochemical
Settings: human DGAT1 expressed in insect cell (sf9) membranes; 14C oleoyl coenzyme A, 30 minutes, room temperature
Protocol: The in vitro assay to identify DGAT1 inhibitors uses human DGAT1 expressed in insect cell membranes as the enzyme source (Proc. Natl. Acad. Sci. 1998, 95, 13018-13023). Briefly, sf9 cells were infected with recombinant baculovirus containing human DGAT1 coding sequences and harvested after 48 h. Cells were lysed by sonication and membranes isolated by centrifuging at 28000 rpm for 1 h at 4° C. on a 41% sucrose gradient. The membrane fraction at the interphase was collected, washed, and stored in liquid nitrogen.
DGAT1 activity was assayed by a modification of the method described by Coleman (Methods in Enzymology 1992, 209, 98-102). Compound at 1-10 μM was incubated with 0.4 μg membrane protein, 5 mM MgCl2, and 100 μM 1,2 dioleoyl-sn-glycerol in a total assay volume of 200 μl in plastic tubes. The reaction was started by adding ^14C oleoyl coenzyme A (30 μM final concentration) and incubated at room temperature for 30 minutes. The reaction was stopped by adding 1.5 mL 2-propanol:heptane:water (80:20:2). Radioactive triolein product was separated into the organic phase by adding 1 mL heptane and 0.5 mL 0.1 M carbonate buffer pH 9.5. DGAT1 activity was quantified by counting aliquots of the upper heptane layer by liquid scintillography.

O=C(O)CC1CCC(c2ccc(NC(=O)c3cnc(Nc4ccccc4)o3)cc2)CC1 (stereo not shown) [Example 1, [4-(4-{[(2-Anilino-1,3-oxazol-5-yl)carbonyl]amino}phenyl)cyclohexyl]acetic acid]
IC50: 100 nM
